Source: patent US20160304461A1, “QUINOLONE COMPOUND AND PHARMACEUTICAL COMPOSITION” (OTSUKA PHARMACEUTICAL CO., LTD., priority 2007, published 2016)
Blank lines part the entries; values can stand above or below the molecule they belong to.

How the values were obtained:
[1] = system: human neuroblastoma cell lines SH-SY5Y; assay: Improvement of mitochondrial dysfunction in MPP+-treated SH-SY5Y cells (Alamar Blue mitochondrial oxidation reduction activity); format: cell-based; details: SH-SY5Y cells in 1.5 mM MPP+ medium, relative to cells in DMSO alone = 100%, read-out: Fluorescence Intensity (%); for activity at 0.01 µg/mL: test compound 0.01 μg/ml; for activity at 0.03 µg/mL: test compound 0.03 μg/ml; for activity at 0.1 µg/mL: test compound 0.1 μg/ml; for activity at 0.3 µg/mL: test compound 0.3 μg/ml; for activity at 1 µg/mL: test compound 1 μg/ml
Procedure: Evaluation of Improvement of Mitochondrial Dysfunction using Human Neuroblastoma Cell Lines SH-SY5Y Treated with 1-methyl-4-phenylpyridinium (MPP^+)
In human neuroblastoma cell lines SH-SY5Y in which mitochondrial activity was injured by MPP^+ treatment (Bollimuntha S. et al., J Biol Chem, 280, 2132-2140 (2005) and Shang T. et al., J Biol Chem, 280, 34644-34653 (2005)), improvement of the mitochondrial dysfunction was evaluated on the basis of the measurement value of the mitochondrial oxidation reduction activity using Alamar Blue fluorescent dye after the compound addition (Nakai M. et. al, Exp Neurol, 179, 103-110 (2003)).
The human neuroblastoma cell lines SH-SY5Y were cultured in Dulbecco's Modified Eagle's Medium containing 10% fetal bovine serum (DMEM containing 50 units/ml penicillin and 50 μg/ml streptomycin as antibiotics) at 37° C. in the presence of 5% carbon dioxide. Cells were scattered on a poly-D-lysine-coated 96-well black plate at a concentration of 3-6×10^4 cells/cm^2 (medium amount: 100 μl/well), and cultured in the above medium for two days. Further, the medium was changed to a DMEM containing a 1% N2 supplement (N2-DMEM) or to a medium (100 μl/well) in which 1.5 mM MPP^+ was dissolved. The cells were cultured therein for 39 to 48 hours, and then subjected to a mitochondrial oxidation reduction activity measurement system. A sample compound that had been previously dissolved in dimethyl sulfoxide (DMSO) was diluted with N2-DMEM, and added in a volume of 10 μl/well 24 hours before the activity measurement (final compound concentration: 0.01 to 1 μg/ml).
After removal of the medium by suction, a balanced salt solution containing 10% Alamar Blue (154 mM sodium chloride, 5.6 mM potassium chloride, 2.3 mM calcium chloride, 1.0 mM magnesium chloride, 3.6 mM sodium bicarbonate, 5 mM glucose, 5 mM HEPES, pH 7.2) was added in a volume of 100 μl/well, and reacted in an incubator at 37° C. for 1 hour. The fluorescent intensity was detected using a fluorescence detector (a product of Hamamatsu Photonics K.K., excitation wavelength 530 nm, measurement wavelength 580 nm) to thereby measure the mitochondrial oxidation reduction activity.
The fluorescent intensity of the well of the cells cultured in a medium containing MPP^+ and in each of the sample compounds was relatively evaluated based on a 100% fluorescent intensity of the well of the cells cultured in a medium containing DMSO alone (final concentration: 0.1%).

melting point: 153 to 154 °C
Structure (SMILES): CCCOc1ccc(F)c2c(=O)c(-c3ccc(CC)cc3)c[nH]c12 [Example 53, 3-(4-Ethylphenyl)-5-fluoro-8-propoxy-1H-quinolin-4-one]
activity at 0.01 µg/mL [1]: 53%
activity at 0.03 µg/mL [1]: 56%
activity at 0.1 µg/mL [1]: 67%
activity at 0.3 µg/mL [1]: 60%
activity at 1 µg/mL [1]: 67%

melting point: 100 to 101 °C
Structure (SMILES): COCCN(C)c1ccc(F)c2c(=O)c(-c3ccc(OC)cc3)c[nH]c12.Cl [Example 34, 5-Fluoro-8-[N-(2-methoxyethyl)-N-methylamino]-3-(4-methoxyphenyl)-1H-quinolin-4-one hydrochloride]
activity at 0.01 µg/mL [1]: 69%
activity at 0.03 µg/mL [1]: 74%
activity at 0.1 µg/mL [1]: 77%
activity at 0.3 µg/mL [1]: 78%
activity at 1 µg/mL [1]: 87%

melting point: 215 to 216 °C
Structure (SMILES): CCCOc1ccc(F)c2c(=O)c(-c3ccc(OC)nc3)c[nH]c12 [Example 63, 5-Fluoro-3-(6-methoxypyridin-3-yl)-8-propoxy-1H-quinolin-4-one]
activity at 0.01 µg/mL [1]: 58%
activity at 0.03 µg/mL [1]: 65%
activity at 0.1 µg/mL [1]: 74%
activity at 0.3 µg/mL [1]: 75%
activity at 1 µg/mL [1]: 85%

melting point: 190 to 191 °C
Structure (SMILES): COc1ccc(-c2c[nH]c3c(OCC4CC4)ccc(F)c3c2=O)cc1 [Example 24, 8-Cyclopropylmethoxy-5-fluoro-3-(4-methoxyphenyl)-1H-quinolin-4-one]
activity at 0.01 µg/mL [1]: 60%
activity at 0.03 µg/mL [1]: 70%
activity at 0.1 µg/mL [1]: 82%
activity at 0.3 µg/mL [1]: 78%
activity at 1 µg/mL [1]: 84%

melting point: 167 to 168 °C
Structure (SMILES): CCCOc1ccc(F)c2c(=O)c(-c3ccc(OC(F)(F)F)cc3)c(C)[nH]c12 [Example 70, 5-Fluoro-2-methyl-8-propoxy-3-(4-trifluoromethoxyphenyl)-1H-quinolin-4-one]
activity at 0.01 µg/mL [1]: 56%
activity at 0.03 µg/mL [1]: 57%
activity at 0.1 µg/mL [1]: 67%
activity at 0.3 µg/mL [1]: 71%
activity at 1 µg/mL [1]: 63%

melting point: 181 to 184 °C
Structure (SMILES): CCCOc1ccc(F)c2c(=O)c(-c3ccsc3CO)c[nH]c12 [Example 100, 5-Fluoro-3-(2-hydroxymethylthiophen-3-yl)-8-propoxy-1H-quinolin-4-one]
activity at 0.01 µg/mL [1]: 56%
activity at 0.03 µg/mL [1]: 56%
activity at 0.1 µg/mL [1]: 71%
activity at 0.3 µg/mL [1]: 73%
activity at 1 µg/mL [1]: 84%

melting point: 173 to 174 °C
Structure (SMILES): CCCSc1ccc(F)c2c(=O)c(-c3ccc(OC)cc3)c[nH]c12 [Example 40, 5-Fluoro-3-(4-methoxyphenyl)-8-propylsulfanyl-1H-quinolin-4-one]
activity at 0.01 µg/mL [1]: 60%
activity at 0.03 µg/mL [1]: 64%
activity at 0.1 µg/mL [1]: 76%
activity at 0.3 µg/mL [1]: 70%
activity at 1 µg/mL [1]: 72%

Structure (SMILES): COc1ccc(-c2c[nH]c3c(OCCCC(F)(F)F)ccc(F)c3c2=O)cc1 [Example 31, 5-Fluoro-3-(4-methoxyphenyl)-8-(4,4,4-trifluorobutoxy)-1H-quinolin-4-one]
melting point: 171 to 172 °C
activity at 0.01 µg/mL [1]: 45%
activity at 0.03 µg/mL [1]: 45%
activity at 0.1 µg/mL [1]: 57%
activity at 0.3 µg/mL [1]: 59%
activity at 1 µg/mL [1]: 48%

melting point: 213 to 215 °C
Structure (SMILES): COc1ccc(-c2c[nH]c3c(OC4CCCC4)ccc(F)c3c2=O)cc1 [Example 37, 8-Cyclopentyloxy-5-fluoro-3-(4-methoxyphenyl)-1H-quinolin-4-one]
activity at 0.01 µg/mL [1]: 64%
activity at 0.03 µg/mL [1]: 73%
activity at 0.1 µg/mL [1]: 78%
activity at 0.3 µg/mL [1]: 70%
activity at 1 µg/mL [1]: 61%

melting point: 162 to 163 °C
Structure (SMILES): CCCOc1ccc(F)c2c(=O)c(-c3ccc(OCC4CC4)cc3)c[nH]c12 [Example 35, 3-(4-Cyclopropylmethoxyphenyl)-5-fluoro-8-propoxy-1H-quinolin-4-one]
activity at 0.01 µg/mL [1]: 75%
activity at 0.03 µg/mL [1]: 88%
activity at 0.1 µg/mL [1]: 99%
activity at 0.3 µg/mL [1]: 95%
activity at 1 µg/mL [1]: 65%

melting point: 217 to 218 °C
Structure (SMILES): CCCOc1ccc(F)c2c(=O)c(-c3ccc(OC)c(OC)c3)c[nH]c12 [Example 62, 3-(3,4-Dimethoxyphenyl)-5-fluoro-8-propoxy-1H-quinolin-4-one]
activity at 0.01 µg/mL [1]: 66%
activity at 0.03 µg/mL [1]: 62%
activity at 0.1 µg/mL [1]: 79%
activity at 0.3 µg/mL [1]: 84%
activity at 1 µg/mL [1]: 80%

melting point: 198 to 199 °C
Structure (SMILES): CCCOc1ccc(F)c2c(=O)c(-c3ccc(OC)nc3OC)c[nH]c12 [Example 64, 3-(2,6-Dimethoxypyridin-3-yl)-5-fluoro-8-propoxy-1H-quinolin-4-one]
activity at 0.01 µg/mL [1]: 55%
activity at 0.03 µg/mL [1]: 65%
activity at 0.1 µg/mL [1]: 74%
activity at 0.3 µg/mL [1]: 72%
activity at 1 µg/mL [1]: 77%

melting point: 198 to 199 °C
Structure (SMILES): CCCOc1ccc(F)c2c(=O)c(-c3ccc(SC)cc3)c[nH]c12 [Example 38, 5-Fluoro-3-(4-methylsulfanylphenyl)-8-propoxy-1H-quinolin-4-one]
activity at 0.01 µg/mL [1]: 66%
activity at 0.03 µg/mL [1]: 67%
activity at 0.1 µg/mL [1]: 86%
activity at 0.3 µg/mL [1]: 81%
activity at 1 µg/mL [1]: 78%

melting point: 196 to 197 °C
Structure (SMILES): CCCOc1ccc(F)c2c(=O)c(-c3ccc(OC)cc3)c[nH]c12 [Example 6, 5-Fluoro-3-(4-methoxyphenyl)-8-propoxy-1H-quinolin-4-one]
activity at 0.01 µg/mL [1]: 59%
activity at 0.03 µg/mL [1]: 71%
activity at 0.1 µg/mL [1]: 85%
activity at 0.3 µg/mL [1]: 88%
activity at 1 µg/mL [1]: 83%

melting point: 211 to 213 °C
Structure (SMILES): CCCOc1ccc(F)c2c(=O)c(-c3cccs3)c[nH]c12 [Example 59, 5-Fluoro-8-propoxy-3-thiophen-2-yl-1H-quinolin-4-one]
activity at 0.01 µg/mL [1]: 53%
activity at 0.03 µg/mL [1]: 56%
activity at 0.1 µg/mL [1]: 67%
activity at 0.3 µg/mL [1]: 66%
activity at 1 µg/mL [1]: 54%

melting point: 217 to 218 °C
Structure (SMILES): CCCOc1ccc(F)c2c(=O)c(-c3ccc(OC)c(Cl)c3)c[nH]c12 [Example 4, 3-(3-Chloro-4-methoxyphenyl)-5-fluoro-8-propoxy-1H-quinolin-4-one]
activity at 0.01 µg/mL [1]: 56%
activity at 0.03 µg/mL [1]: 61%
activity at 0.1 µg/mL [1]: 70%
activity at 0.3 µg/mL [1]: 72%
activity at 1 µg/mL [1]: 59%

melting point: 183 to 184 °C
Structure (SMILES): COc1ccc(-c2c[nH]c3c(-c4ccsc4)ccc(F)c3c2=O)cc1 [Example 87, 5-Fluoro-3-(4-methoxyphenyl)-8-thiophen-3-yl-1H-quinolin-4-one]
activity at 0.01 µg/mL [1]: 63%
activity at 0.03 µg/mL [1]: 66%
activity at 0.1 µg/mL [1]: 79%
activity at 0.3 µg/mL [1]: 63%
activity at 1 µg/mL [1]: 51%

melting point: 208 to 210 °C
Structure (SMILES): CCCOc1ccc(F)c2c(=O)c(-c3ccsc3)c[nH]c12 [Example 3, 5-Fluoro-8-propoxy-3-thiophen-3-yl-1H-quinolin-4-one]
activity at 0.01 µg/mL [1]: 54%
activity at 0.03 µg/mL [1]: 63%
activity at 0.1 µg/mL [1]: 70%
activity at 0.3 µg/mL [1]: 78%
activity at 1 µg/mL [1]: 74%

melting point: 134 to 136 °C
Structure (SMILES): CCCOc1ccc(F)c2c(=O)c(-c3ccco3)c(C(F)(F)F)[nH]c12 [Example 78, 5-Fluoro-3-furan-2-yl-8-propoxy-2-trifluoromethyl-1H-quinolin-4-one]

melting point: 155 to 156 °C
Structure (SMILES): CCOc1ccc(F)c2c(=O)c(-c3ccc(OC)cc3)c[nH]c12 [Example 11, 8-Ethoxy-5-fluoro-3-(4-methoxyphenyl)-1H-quinolin-4-one]
